Measured values taken from PubChem BioAssay AID1963836 (Molecular Pharmacology Branch, DTP, NCI, 2024).

System: 857933-349-R-J2-PDC complex spheroid viability
Assay: Anticancer human tumor 857933-349-R-J2-PDC patient-derived colon adenocarcinoma cell line growth inhibition [POLQ]
Details: for IC50: curve of first compound; for viability, T/C: stronger effect = lower value
Procedure, shortened: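 Complex spheroid viability model combining PDC tumour cells with endothelial (HUVEC) and MSC stromal cells. Novobiocin, ART-558 or RP6685 were tested singly and in combination with standard and investigational anticancer drugs. Each was titrated in half-log steps from near clinical Cmax, or from 10 microM where Cmax was unknown.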

[1] = second compound 0.0316 µM, first compound 0.0316 µM
[2] = second compound 0.0316 µM, first compound 0.1 µM
[3] = second compound 0.0316 µM, first compound 0.316 µM
[4] = second compound 0.0316 µM, first compound 1 µM
[5] = second compound 0.0316 µM, first compound 3.16 µM
[6] = second compound 0.0316 µM, first compound 10 µM
[7] = second compound 0.1 µM, first compound 0.0316 µM
[8] = second compound 0.1 µM, first compound 0.1 µM
[9] = second compound 0.1 µM, first compound 0.316 µM
[10] = second compound 0.1 µM, first compound 1 µM
[11] = second compound 0.1 µM, first compound 3.16 µM
[12] = second compound 0.1 µM, first compound 10 µM
[13] = second compound 0.316 µM, first compound 0.0316 µM
[14] = second compound 0.316 µM, first compound 0.1 µM
[15] = second compound 0.316 µM, first compound 0.316 µM
[16] = second compound 0.316 µM, first compound 1 µM
[17] = second compound 0.316 µM, first compound 3.16 µM
[18] = second compound 0.316 µM, first compound 10 µM
[19] = second compound 1 µM, first compound 0.0316 µM
[20] = second compound 1 µM, first compound 0.1 µM
[21] = second compound 1 µM, first compound 0.316 µM
[22] = second compound 1 µM, first compound 1 µM
[23] = second compound 1 µM, first compound 3.16 µM
[24] = second compound 1 µM, first compound 10 µM
[25] = second compound 3.16 µM, first compound 0.0316 µM
[26] = second compound 3.16 µM, first compound 0.1 µM
[27] = second compound 3.16 µM, first compound 0.316 µM
[28] = second compound 3.16 µM, first compound 1 µM
[29] = second compound 3.16 µM, first compound 3.16 µM
[30] = second compound 3.16 µM, first compound 10 µM
[31] = second compound 10 µM, first compound 0.0316 µM
[32] = second compound 10 µM, first compound 0.1 µM
[33] = second compound 10 µM, first compound 0.316 µM
[34] = second compound 10 µM, first compound 1 µM
[35] = second compound 10 µM, first compound 3.16 µM
[36] = second compound 10 µM, first compound 10 µM
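Further: spheroids exposed to compounds for seven days before readout.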

Compound: CCCS(=O)(=O)Nc1ccc(F)c(C(=O)c2c[nH]c3ncc(-c4ccc(Cl)cc4)cc23)c1F + Nc1ccc(C#CCN(C(=O)Cc2ncc(C(F)(F)F)cc2C(F)(F)F)c2ccc(F)cc2)nn1
- IC50 (second compound 0.0316 µM): 6.17 µM
- IC50 (second compound 0.1 µM): 6.22 µM
- IC50 (second compound 0.316 µM): 5.99 µM
- IC50 (second compound 1 µM): 6.43 µM
- IC50 (second compound 3.16 µM): 6.48 µM
- IC50 (second compound 10 µM): 6.48 µM
- viability, T/C [1]: 103%
- viability, T/C [2]: 102%
- viability, T/C [3]: 102%
- viability, T/C [4]: 102%
- viability, T/C [5]: 97.5%
- viability, T/C [6]: 15.6%
- viability, T/C [7]: 93.5%
- viability, T/C [8]: 112%
- viability, T/C [9]: 88.6%
- viability, T/C [10]: 104%
- viability, T/C [11]: 102%
- viability, T/C [12]: 14.9%
- viability, T/C [13]: 103%
- viability, T/C [14]: 89%
- viability, T/C [15]: 99.6%
- viability, T/C [16]: 91%
- viability, T/C [17]: 98.3%
- viability, T/C [18]: 12.9%
- viability, T/C [19]: 116%
- viability, T/C [20]: 93%
- viability, T/C [21]: 82.1%
- viability, T/C [22]: 106%
- viability, T/C [23]: 109%
- viability, T/C [24]: 17.9%
- viability, T/C [25]: 77.1%
- viability, T/C [26]: 97.2%
- viability, T/C [27]: 99.3%
- viability, T/C [28]: 96.8%
- viability, T/C [29]: 99.6%
- viability, T/C [30]: 23.3%
- viability, T/C [31]: 97.7%
- viability, T/C [32]: 90.7%
- viability, T/C [33]: 93.4%
- viability, T/C [34]: 86.5%
- viability, T/C [35]: 92%
- viability, T/C [36]: 24.6%

Compound: COc1ccc([C@@H](O)c2cc(-c3ncnc4cc(N5CCOCC5)ccc34)c(F)cc2Cl)nn1 + Nc1ccc(C#CCN(C(=O)Cc2ncc(C(F)(F)F)cc2C(F)(F)F)c2ccc(F)cc2)nn1
- IC50 (second compound 0.0316 µM): > 10 µM
- IC50 (second compound 0.1 µM): > 10 µM
- IC50 (second compound 0.316 µM): 9.69 µM
- IC50 (second compound 1 µM): > 10 µM
- IC50 (second compound 3.16 µM): > 10 µM
- IC50 (second compound 10 µM): > 10 µM
- viability, T/C [1]: 86.3%
- viability, T/C [2]: 104%
- viability, T/C [3]: 103%
- viability, T/C [4]: 92.6%
- viability, T/C [5]: 77.2%
- viability, T/C [6]: 56.2%
- viability, T/C [7]: 91.4%
- viability, T/C [8]: 100%
- viability, T/C [9]: 96.8%
- viability, T/C [10]: 84.3%
- viability, T/C [11]: 78.6%
- viability, T/C [12]: 60.8%
- viability, T/C [13]: 84.6%
- viability, T/C [14]: 91.2%
- viability, T/C [15]: 81.2%
- viability, T/C [16]: 94.7%
- viability, T/C [17]: 80.7%
- viability, T/C [18]: 48.7%
- viability, T/C [19]: 96.8%
- viability, T/C [20]: 89.3%
- viability, T/C [21]: 93.4%
- viability, T/C [22]: 76.6%
- viability, T/C [23]: 84.5%
- viability, T/C [24]: 59.6%
- viability, T/C [25]: 88.2%
- viability, T/C [26]: 95.8%
- viability, T/C [27]: 86.5%
- viability, T/C [28]: 84.1%
- viability, T/C [29]: 75.3%
- viability, T/C [30]: 60%
- viability, T/C [31]: 99.9%
- viability, T/C [32]: 89.8%
- viability, T/C [33]: 95.3%
- viability, T/C [34]: 76.3%
- viability, T/C [35]: 76.8%
- viability, T/C [36]: 51.6%

Compound: Cn1ncnc1[C@H]1c2n[nH]c(=O)c3cc(F)cc(c23)N[C@@H]1c1ccc(F)cc1 + Nc1ccc(C#CCN(C(=O)Cc2ncc(C(F)(F)F)cc2C(F)(F)F)c2ccc(F)cc2)nn1
- IC50 (second compound 0.0316 µM): > 0.1 µM
- IC50 (second compound 0.1 µM): > 0.1 µM
- IC50 (second compound 0.316 µM): > 0.1 µM
- IC50 (second compound 1 µM): > 0.1 µM
- IC50 (second compound 3.16 µM): > 0.1 µM
- IC50 (second compound 10 µM): > 0.1 µM
- viability, T/C (second compound 0.0316 µM, first compound 0.000316 µM): 90.9%
- viability, T/C (second compound 0.0316 µM, first compound 0.001 µM): 83.9%
- viability, T/C (second compound 0.0316 µM, first compound 0.00316 µM): 80.7%
- viability, T/C (second compound 0.0316 µM, first compound 0.01 µM): 90%
- viability, T/C [1]: 95%
- viability, T/C [2]: 85.1%
- viability, T/C (second compound 0.1 µM, first compound 0.000316 µM): 92.7%
- viability, T/C (second compound 0.1 µM, first compound 0.001 µM): 92.7%
- viability, T/C (second compound 0.1 µM, first compound 0.00316 µM): 94%
- viability, T/C (second compound 0.1 µM, first compound 0.01 µM): 104%
- viability, T/C [7]: 103%
- viability, T/C [8]: 91.5%
- viability, T/C (second compound 0.316 µM, first compound 0.000316 µM): 104%
- viability, T/C (second compound 0.316 µM, first compound 0.001 µM): 101%
- viability, T/C (second compound 0.316 µM, first compound 0.00316 µM): 97%
- viability, T/C (second compound 0.316 µM, first compound 0.01 µM): 105%
- viability, T/C [13]: 75%
- viability, T/C [14]: 97.6%
- viability, T/C (second compound 1 µM, first compound 0.000316 µM): 105%
- viability, T/C (second compound 1 µM, first compound 0.001 µM): 85.8%
- viability, T/C (second compound 1 µM, first compound 0.00316 µM): 86%
- viability, T/C (second compound 1 µM, first compound 0.01 µM): 97.5%
- viability, T/C [19]: 93.9%
- viability, T/C [20]: 93.6%
- viability, T/C (second compound 3.16 µM, first compound 0.000316 µM): 86.2%
- viability, T/C (second compound 3.16 µM, first compound 0.001 µM): 80.2%
- viability, T/C (second compound 3.16 µM, first compound 0.00316 µM): 93.5%
- viability, T/C (second compound 3.16 µM, first compound 0.01 µM): 98%
- viability, T/C [25]: 111%
- viability, T/C [26]: 94.2%
- viability, T/C (second compound 10 µM, first compound 0.000316 µM): 84.8%
- viability, T/C (second compound 10 µM, first compound 0.001 µM): 82.1%
- viability, T/C (second compound 10 µM, first compound 0.00316 µM): 98.3%
- viability, T/C (second compound 10 µM, first compound 0.01 µM): 92.2%
- viability, T/C [31]: 93.2%
- viability, T/C [32]: 61.7%
